Like-named read-outs stand apart in the source and are kept apart here. Marks after values point to notes of the source that are not given here.
Tests used:
[1] = cited from earlier work
[2] = test system: isolated rat liver mitochondria; assay: Mitochondrial toxicity, any endpoint, intact mitochondria and submitochondrial particles; format: biochemical; conditions: for lowest concentration causing significant mitochondrial toxicity: any endpoint
Protocol: Rats were anesthetized by an intraperitoneal injection of Nembutal and the liver perfused with PBS to remove the blood. The liver was then cut into small pieces and homogenized using a Dounce type homogenizer in the ice-cold isolation buffer (IB) containing 200 mM sucrose, 10 mM Tris-MOPS, 1 mM EGTA (pH 7.4). The sample was then centrifuged at 600g for 10 min. The supernatant was further centrifuged at 7500g for 10 min, and the pellets was washed once with the IB and centrifuged again at 7500g for 10 min to collect mitochondria. […] Before drug treatment, the protein concentration was adjusted to 1 mg/ml using appropriate buffer. […] Briefly, mitochondrial and cytosolic fractions from four different preparations using four rats were diluted using the Laemmli protein loading buffer and subject to SDS-PAGE with 4–20% gradient gels. The proteins were blotted to PVDF membranes and detected using antibodies against GAPDH, ATP5A, UQCRC2, SDHB, and NDUFB8.
The aliquoted stock solutions were kept for less than one month and each tube was used only once. The KIs were added to the mitochondria at 1:1000 dilutions. […] The Cmax data were from clinical trials which used FDA recommend dosages, route of administration, and duration. […] The final concentration of DMSO for drug treatment was always 0.1%, and control treatments were 0.1% DMSO.

[3] = test system: isolated rat liver mitochondria; conditions: for lowest concentration causing cytochrome c release: rat, 30 min, pH 7.4
[4] = cited from earlier work; remark: listed apart in the source
[5] = test system: isolated rat liver mitochondria; assay: Mitochondrial ROS production (CM-H2DCFDA)
[6] = test system: isolated rat liver mitochondria; assay: Mitochondrial oxygen consumption (glutamate/malate or succinate driven, state 4 and state 3); format: biochemical; conditions: for Glutamate/malate driven respiration State 3 / Glutamate/malate driven respiration State 4 / Succinate-driven respiration State 3 / Succinate-driven respiration State 4: oxygen consumption, DMSO-treated = 1; for State 3 respiration driven by succinate at 10XCmax: key: 0 indicates that the drug had no effects (negative); for State 3 respiration driven by succinate at 1XCmax: key: 0 indicates that the drug had no effects (negative)
Procedure, shortened: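 Oxygen uptake on glutamate/malate or on succinate defined state 4; ADP added 3 min later gave state 3. Mitochondria isolated from rat liver by differential centrifugation, adjusted to 1 mg/ml and pretreated 5 min with inhibitor (0.1% DMSO final). Values relative to DMSO control, set to 1.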

[7] = test system: isolated rat liver mitochondria; assay: Mitochondrial inner membrane potential (MMP), Rhodamine 123; format: biochemical; conditions: difference in signal between KI and DMSO treated samples at the end of experiments
Excerpt: Fig. 3 KI effects on mitochondrial inner membrane potential (MMP). […] In a, c, data are means and standard derivations from three separate experiments. *p < 0.05 as compared to DMSO-treated samples at the end of experiments. In b, data are means of two independent experiments

[8] = ref product labeling; cited from earlier work
[9] = test system: isolated rat liver mitochondria; assay: Mitochondrial swelling (absorbance at 535 nm); format: biochemical; conditions: difference in signal between KI and DMSO treated samples at the end of experiments; for Swelling 5XCmax: key: 0 indicates that the drug had no effects (negative)
RCC I = RCC I activity in submitochondrial particles; format: biochemical, rat; parameters: key to RCC I at 10XCmax / RCC I at 100XCmax / RCC I at 50XCmax / RCC I at 30XCmax / RCC I at 20XCmax: activity relative to DMSO-treated controls (control set as 1 = 100%)
Procedure, shortened: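 Kinase inhibitors were preincubated 15 min with submitochondrial particles (1 mg/ml) before complex activities were measured. RCC I was the rotenone-sensitive portion (activity without minus with rotenone). RCC I/V was read at 340 nm and RCC II at 600 nm every 1 min for 6 min. RCC III and IV were read at 550 nm every 10 s for 2 min. Activities are normalized to DMSO controls set as 1.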

RCC II = target: T1, RCC II (Rattus norvegicus, UniProt P21913+Q641Z9+Q6PCT8+Q920L2); assay: RCC II activity in submitochondrial particles; format: biochemical; parameters: key: activity relative to DMSO-treated controls (control set as 1 = 100%); conditions: DMSO treated samples set as 1
T1 construct: Submitochondrial particles were prepared by subjecting the intact mitochondria to three successive freeze–thaw cycles; from tissue; host or cells: rat liver mitochondria, used as submitochondrial particles
T1 sequence (Q920L2 35-656): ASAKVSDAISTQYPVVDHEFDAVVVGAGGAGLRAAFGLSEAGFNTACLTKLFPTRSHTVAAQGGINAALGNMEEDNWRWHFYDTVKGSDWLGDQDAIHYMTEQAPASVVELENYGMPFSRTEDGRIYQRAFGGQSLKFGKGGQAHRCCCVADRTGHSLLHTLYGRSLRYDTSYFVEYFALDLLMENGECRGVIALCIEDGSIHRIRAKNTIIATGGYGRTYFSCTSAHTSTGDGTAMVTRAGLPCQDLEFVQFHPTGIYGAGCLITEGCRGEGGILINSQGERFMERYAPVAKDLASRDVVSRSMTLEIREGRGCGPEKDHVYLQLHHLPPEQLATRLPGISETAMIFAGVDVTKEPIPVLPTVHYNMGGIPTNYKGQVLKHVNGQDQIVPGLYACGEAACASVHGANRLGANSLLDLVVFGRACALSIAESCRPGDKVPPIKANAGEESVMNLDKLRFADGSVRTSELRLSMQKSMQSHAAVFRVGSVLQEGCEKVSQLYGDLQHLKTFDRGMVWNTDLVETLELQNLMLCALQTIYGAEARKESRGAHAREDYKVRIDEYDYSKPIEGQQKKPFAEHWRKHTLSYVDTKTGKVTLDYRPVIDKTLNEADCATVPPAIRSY
T1 sequence (P21913 31-282): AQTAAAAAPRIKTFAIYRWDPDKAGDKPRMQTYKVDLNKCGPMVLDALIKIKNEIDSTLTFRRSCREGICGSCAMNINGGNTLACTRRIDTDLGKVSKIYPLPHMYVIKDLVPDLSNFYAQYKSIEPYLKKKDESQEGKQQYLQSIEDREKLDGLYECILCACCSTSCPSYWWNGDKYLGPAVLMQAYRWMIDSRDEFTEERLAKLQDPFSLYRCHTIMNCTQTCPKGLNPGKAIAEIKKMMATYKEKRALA
T1 sequence (Q641Z9 1-169): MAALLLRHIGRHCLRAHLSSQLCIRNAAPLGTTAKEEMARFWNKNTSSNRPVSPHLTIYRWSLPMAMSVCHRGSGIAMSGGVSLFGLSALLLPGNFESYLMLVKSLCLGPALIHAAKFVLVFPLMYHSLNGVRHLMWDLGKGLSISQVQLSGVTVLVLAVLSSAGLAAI
T1 sequence (Q6PCT8 57-159): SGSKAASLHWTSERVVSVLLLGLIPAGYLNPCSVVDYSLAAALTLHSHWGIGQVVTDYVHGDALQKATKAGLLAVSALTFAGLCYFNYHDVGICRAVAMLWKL
Procedure, shortened: (§1)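 Absorbance kinetics: A340 (RCC I, V) and A600 (RCC II) read each minute over 6 min, A550 (RCC III, IV) every 10 s over 2 min; RCC I taken as […]. Particles (1 mg/ml) pretreated 15 min with compound; DMSO-treated activity = 1.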

RCC V = RCC V activity in submitochondrial particles; format: biochemical, rat; conditions: 5XCmax; DMSO treated samples set as 1; note: key: 0 indicates that the drug had no effects (negative)
Procedure, shortened: as §1

[10] = human therapeutic Cmax at FDA recommended dosages, ref product labeling and drug approval packages at the official FDA website
[11] = 1XCmax, DMSO treated samples set as 1
[12] = 2.5XCmax, DMSO treated samples set as 1
[13] = 5XCmax, DMSO treated samples set as 1
[14] = 10XCmax, DMSO treated samples set as 1
[15] = 20XCmax, DMSO treated samples set as 1
[16] = 30XCmax, DMSO treated samples set as 1

CS(=O)(=O)CCNCc1ccc(-c2ccc3ncnc(Nc4ccc(OCc5cccc(F)c5)c(Cl)c4)c3c2)o1 [Lapatinib]
labeling for DILI ([1]; in vivo): BBW: fatal DILI | DILI potential (based on labeling) ([1]; ref FDA product labeling): 1 | mitochondrial injury ([2]; concentrations equal to 100-fold Cmax): mitochondrial injury was induced

C=CC(=O)Nc1cc(Nc2nccc(-c3cn(C)c4ccccc34)n2)c(OC)cc1N(C)CCN(C)C [Osimertinib]
lowest concentration causing cytochrome c release [3]: 100 fold Cmax | Cmax [4, 10]: 0.5 µM | lowest concentration causing significant mitochondrial toxicity [2]: 30 fold Cmax | lowest concentration triggering ROS overproduction [5]: 30 fold Cmax

N#CC[C@H](C1CCCC1)n1cc(-c2ncnc3[nH]ccc23)cn1 [Ruxolitinib]
lowest concentration causing cytochrome c release [3]: 50 fold Cmax | Cmax [4, 10]: 1.2 µM | Glutamate/malate driven respiration State 3 ([6]; 20-fold Cmax): 0.62 ± 0.05 | Glutamate/malate driven respiration State 4 ([6]; 20-fold Cmax): 0.81 ± 0.05 | Succinate-driven respiration State 3 ([6]; 20-fold Cmax): 0.90 ± 0.13 | Succinate-driven respiration State 4 ([6]; 20-fold Cmax): 1.00 ± 0.14 | Glutamate/malate driven respiration State 3 ([6]; 30-fold Cmax): 0.54 ± 0.02 | Glutamate/malate driven respiration State 4 ([6]; 30-fold Cmax): 1.00 ± 0.09 | Succinate-driven respiration State 3 ([6]; 30-fold Cmax): 1.05 ± 0.11 | Succinate-driven respiration State 4 ([6]; 30-fold Cmax): 1.08 ± 0.09 | Glutamate/malate driven respiration State 3 ([6]; 50-fold Cmax): 0.49 ± 0.06 | Glutamate/malate driven respiration State 4 ([6]; 50-fold Cmax): 0.97 ± 0.20 | Succinate-driven respiration State 3 ([6]; 50-fold Cmax): 0.87 ± 0.08 | Succinate-driven respiration State 4 ([6]; 50-fold Cmax): 1.07 ± 0.07 | Glutamate/malate driven respiration State 3 ([6]; 100-fold Cmax): 0.28 ± 0.06 | Glutamate/malate driven respiration State 4 ([6]; 100-fold Cmax): 0.71 ± 0.08 | Succinate-driven respiration State 3 ([6]; 100-fold Cmax): 0.99 ± 0.03 | Succinate-driven respiration State 4 ([6]; 100-fold Cmax): 1.17 ± 0.12 | lowest concentration significantly affecting mitochondrial oxygen consumption ([6]; tested at 1 to 100-fold Cmax): 20 fold Cmax | DILI potential (based on labeling) ([1]; ref FDA product labeling): 0 | lowest concentration causing significant mitochondrial toxicity [2]: 20 fold Cmax

CCN(CC)CCNC(=O)c1c(C)[nH]c(/C=C2\C(=O)Nc3ccc(F)cc32)c1C [Sunitinib]
Cmax [4, 10]: 0.12 µM | Cmax ([4]; ref Porceddu et al. [2012]): 70.8 µM | labeling for DILI ([1]; W&P warnings and precautions, BBW black box warnings, ref FDA product labeling): BBW: fatal DILI | DILI potential (based on labeling) ([1]; ref FDA product labeling): 1 | effects on intact mitochondria or submitochondrial particles ([2]; highest concentrations tested): no effects

COc1cc2nccc(Oc3ccc(NC(=O)C4(C(=O)Nc5ccc(F)cc5)CC4)cc3)c2cc1OC [cabozantinib malate]
Cytochrome c release 1XCmax ([3]; 1XCmax, positive control alamethicin treated samples): 0 | Cytochrome c release 2.5XCmax ([3]; 2.5XCmax, positive control alamethicin treated samples): 0 | Cytochrome c release 5XCmax ([3]; 5XCmax, positive control alamethicin treated samples): 0 | Cytochrome c release 10XCmax ([3]; 10XCmax, positive control alamethicin treated samples): 0 | Cytochrome c release 20XCmax ([3]; 20XCmax, positive control alamethicin treated samples): 0 | Cytochrome c release 30XCmax ([3]; 30XCmax, positive control alamethicin treated samples): 0 | MMP measured by Rhodamine 123 at 1XCmax ([7]; 1XCmax): 0 | MMP measured by Rhodamine 123 at 2.5XCmax ([7]; 2.5XCmax): 0 | MMP measured by Rhodamine 123 at 5XCmax ([7]; 5XCmax): 0 | MMP measured by Rhodamine 123 at 10XCmax ([7]; 10XCmax): 945±179* | MMP measured by Rhodamine 123 at 20XCmax ([7]; 20XCmax): 1828±818* | MMP measured by Rhodamine 123 at 30XCmax ([7]; 30XCmax): 2071±803* | Cmax (ng or µg/ml) ([4]; human therapeutic maximal blood concentration, ref product labeling): 1.64 µg/mL | Cmax ([4]; read-out: Cmax at µM, human therapeutic maximal blood concentration, ref product labeling): 2.58 µM | Potential for cardiotoxicity (based on labeling) [8]: 0 | State 3 respiration driven by succinate at 1XCmax [6, 11]: 0 | State 4 respiration driven by succinate at 1XCmax [6, 11]: 0 | State 3 respiration driven by succinate at 2.5XCmax [6, 12]: 0 | State 4 respiration driven by succinate at 2.5XCmax [6, 12]: 0 | State 3 respiration driven by succinate at 5XCmax [6, 13]: 0 | State 4 respiration driven by succinate at 5XCmax [6, 13]: 0 | State 3 respiration driven by succinate at 10XCmax [6, 14]: 0 | State 4 respiration driven by glutamate/malate at 10XCmax [6, 14]: 1.46±0.08 | State 4 respiration driven by succinate at 10XCmax [6, 14]: 1.23±0.11 | State 3 respiration driven by succinate at 20XCmax [6, 15]: 0 | State 4 respiration driven by glutamate/malate at 20XCmax [6, 15]: 1.30±0.15 | State 4 respiration driven by succinate at 20XCmax [6, 15]: 1.24±0.05 | State 3 respiration driven by succinate at 30XCmax [6, 16]: 0 | State 4 respiration driven by glutamate/malate at 30XCmax [6, 16]: 1.55±0.06 | State 4 respiration driven by succinate at 30XCmax [6, 16]: 1.35±0.18 | Swelling 1XCmax ([9]; 1XCmax): 0 | Swelling 2.5XCmax ([9]; 2.5XCmax): 0 | Swelling 5XCmax ([9]; 5XCmax): 0 | Swelling 10XCmax ([9]; 10XCmax): 0 | Swelling 20XCmax ([9]; 20XCmax): 0.48±0.01 | Swelling 30XCmax ([9]; 30XCmax): 0.46±0.01 | RCC I at 10XCmax (RCC I; [14]): 0 | RCC I at 30XCmax (RCC I; 30XCmax, DMSO-treated = 100): 80.97±2.99 | RCC II at 1.0XCmax (RCC II; 1.0XCmax): 0 | RCC II at 2.5XCmax (RCC II; 2.5XCmax): 0 | RCC II at 5XCmax (RCC II; 5XCmax): 0 | RCC II at 10XCmax (RCC II; 10XCmax): 0 | RCC II at 20XCmax (RCC II; 20XCmax): 0 | RCC II at 30XCmax (RCC II; 30XCmax): 79.26±6.01 | DILI potential (based on labeling) ([1]; 1 DILI positive, 0 negative according to labeling, ref product labeling): 0 | ROS measured by CM-H2DCFDA at 1XCmax [5, 11]: 0 | ROS measured by CM-H2DCFDA at 2.5XCmax [5, 12]: 0 | ROS measured by CM-H2DCFDA at 5XCmax [5, 13]: 0 | ROS measured by CM-H2DCFDA at 10XCmax [5, 14]: 0 | ROS measured by CM-H2DCFDA at 20XCmax [5, 15]: 0 | ROS measured by CM-H2DCFDA at 30XCmax [5, 16]: 0 | RCC V at 5XCmax (RCC V): 0

Reference: article PMC5515969, “Effects of 31 FDA approved small-molecule kinase inhibitors on isolated rat liver mitochondria” (Archives of Toxicology, 2016)
